{
  "source": "patent US10400285B2",
  "about": "“DDX43 as a biomarker of resistance to MEK1/2 inhibitors” (Memorial Sloan-Kettering Cancer Center, priority 2013, dated 2019)",
  "tested_on": "Res-Omm1.3 and Res-Mel270 cells",
  "assay": "Cell viability assay (CCK8), MEKi-resistant cells",
  "format": "cell-based",
  "protocol": "Cells were plated in 96-well plates, and treated with the indicated concentrations of drugs. […] Cell viability is expressed as a percentage of untreated cells.\nTo explore mechanisms of drug resistance, MEKi-resistant GNAQ-mutant cell lines were generated by exposing the cells to increasing concentrations of selumetinib for at least four weeks and routinely grown in 1 μM selumetinib, without clonal selection. After continuous exposure, the cell lines Res-Omm1.3 and Res-Mel270 became resistant to selumetinib compared to their parental cells Omm1.3 and Mel270 (FIG. 2A, B).",
  "data": [
    {"smiles": "NC1(c2ccc(-c3nc4ccn5c(=O)[nH]nc5c4cc3-c3ccccc3)cc2)CCC1", "note": "[MK2206]", "values": [
      {"measurement": "sensitivity to AKTi when combined with MEKi", "setting": "MK2206 with selumetinib, FIG. 6", "result": "sustained"},
      {"measurement": "cell viability with AKTi compared to the parental lines", "setting": "increasing concentrations of MK2206, FIG. 6", "result": "Decreased viability"}
    ]},
    {"smiles": "Cn1cnc2c(F)c(Nc3ccc(Br)cc3Cl)c(C(=O)NOCCO)cc21", "note": "[selumetinib]", "values": [
      {"measurement": "IC50 of resistant cells relative to their sensitive counterparts", "setting": "Res-Omm1.3 and Res-Mel270 vs parental Omm1.3 and Mel270, cell viability", "result": 10, "unit": "fold"}
    ]},
    {"smiles": "O=C(NOC[C@H](O)CO)c1ccc(F)c(F)c1Nc1ccc(I)cc1F", "note": "[PD0325901]", "values": [
      {"measurement": "cell viability: resistance to MEK inhibitor compared to parental cells", "setting": "increasing doses, 4 days, FIG. 2A, B and FIG. 7", "result": "cross resistance"}
    ]}
  ]
}
